Measured values reported in ChEMBL document CHEMBL3400057, “Discovery of DS-5272 as a promising candidate: A potent and orally active p53-MDM2 interaction inhibitor” (Bioorg Med Chem, 2015).
In brackets after ≈: the same amount, converted by molar mass. Activity calls are given as the source filed them. The rule behind the calls is not given here.

How the values were obtained:
[1] = Metabolic stability in mouse hepatic microsome assessed as compound remaining measured at 1 uM after 30 mins by LC-MS/MS analysis; type: ADME; conditions: liver microsomes, read-out: Stability
[2] = Solubility in phosphate buffer at 10 mM at pH 6.8 by HPLC analysis; type: physicochemical
[3] = Antiproliferative activity against human DLD1 cells expressing mutant p53 after 3 days by luminescent cell viability assay; type: cell-based, DLD-1
[4] = tested on: SJSA-1; test: Antiproliferative activity against human SJSA1 cells expressing wildtype p53 after 3 days by luminescent cell viability assay; type: functional; conditions: SJSA-1, 72 h
[5] = Cmax in mouse at 25 mg/kg, po; type: ADME, organism-based; set-up: dose 25 mg/kg, route oral; conditions: in vivo
[6] = tested on: SJSA-1; test: Antitumor activity against human SJSA1 cells xenografted in BALB/c SLc-nu/nu mouse assessed as tumor growth inhibition at 25 mg/kg, po compound administered from day 17 to 20 (qdx4) measured on day 25 (reference value: 0%); type: functional; conditions: read-out: TGI
[7] = Cmax in mouse at 50 mg/kg, po; type: ADME, organism-based; set-up: dose 50 mg/kg, route oral; conditions: in vivo
[8] = AUC in mouse plasma at 100 mg/kg, po; type: ADME, organism-based; set-up: dose 100 mg/kg, route oral
[9] = Plasma concentration in mouse at 50 mg/kg, po after 6 hrs; type: ADME, organism-based; set-up: dose 50 mg/kg, route oral
[10] = tested on: SJSA-1; test: Antitumor activity against human SJSA1 cells xenografted in BALB/c SLc-nu/nu mouse assessed as tumor growth inhibition at 12.5 mg/kg, po compound administered from day 17 to 20 (qdx4) measured on day 25 (reference value: 0%); type: functional; conditions: read-out: TGI
[11] = Plasma concentration in mouse at 25 mg/kg, po after 6 hrs; type: ADME, organism-based; set-up: dose 25 mg/kg, route oral
[12] = tested on: SJSA-1; test: Antitumor activity against human SJSA1 cells xenografted in BALB/c SLc-nu/nu mouse assessed as increase in p53 accumulation in tumor at 25 to 100 mg/kg, po single dose by Western blot analysis; type: functional, organism-based
[13] = tested on: Mus musculus; test: Toxicity in human SJSA1 cells xenografted in BALB/c SLc-nu/nu mouse assessed as body weight loss at 12.5 mg/kg, po compound administered from day 17 to 20 (qdx4) measured on day 25 (reference value: <0%); type: organism-based, SJSA-1; set-up: dose 12.5 mg/kg, route oral; conditions: in vivo
[14] = tested on: Mus musculus; test: Toxicity in human SJSA1 cells xenografted in BALB/c SLc-nu/nu mouse assessed as body weight loss at 25 mg/kg, po compound administered from day 17 to 20 (qdx4) measured on day 25 (reference value: <0%); type: organism-based, SJSA-1; set-up: dose 25 mg/kg, route oral; conditions: in vivo
[15] = Plasma concentration in mouse at 25 mg/kg, po after 3 hrs; type: ADME, organism-based; set-up: dose 25 mg/kg, route oral
[16] = AUC in mouse plasma at 25 mg/kg, po; type: ADME, organism-based; set-up: dose 25 mg/kg, route oral
[17] = tested on: Mus musculus; test: Toxicity in human SJSA1 cells xenografted in BALB/c SLc-nu/nu mouse assessed as body weight loss at 100 mg/kg, po compound administered from day 17 to 20 (qdx4) measured on day 25 (reference value: <0%); type: organism-based, SJSA-1; set-up: dose 100 mg/kg, route oral; conditions: in vivo
[18] = Plasma concentration in mouse at 100 mg/kg, po after 3 hrs; type: ADME, organism-based; set-up: dose 100 mg/kg, route oral
[19] = tested on: SJSA-1; test: Induction of apoptosis in human SJSA1 cells xenografted in BALB/c SLc-nu/nu mouse assessed as PARP cleavage in tumor at 12.5 mg/kg, po single dose by Western blot analysis; type: functional, organism-based; set-up: dose 12.5 mg/kg
[20] = tested on: SJSA-1; test: Antitumor activity against human SJSA1 cells xenografted in BALB/c SLc-nu/nu mouse assessed as increase in Mdm2 accumulation in tumor at 12.5 mg/kg, po single dose by Western blot analysis; type: functional, organism-based; set-up: dose 12.5 mg/kg
[21] = tested on: SJSA-1; test: Antitumor activity against human SJSA1 cells xenografted in BALB/c SLc-nu/nu mouse assessed as tumor growth inhibition at 50 mg/kg, po compound administered from day 17 to 20 (qdx4) measured on day 25 (reference value: 0%); type: functional; conditions: read-out: TGI
[22] = Plasma concentration in mouse at 50 mg/kg, po after 24 hrs; type: ADME, organism-based; set-up: dose 50 mg/kg, route oral
[23] = Plasma concentration in mouse at 50 mg/kg, po after 3 hrs; type: ADME, organism-based; set-up: dose 50 mg/kg, route oral
[24] = Plasma concentration in mouse at 100 mg/kg, po after 24 hrs; type: ADME, organism-based; set-up: dose 100 mg/kg, route oral
[25] = tested on: SJSA-1; test: Antitumor activity against human SJSA1 cells xenografted in BALB/c SLc-nu/nu mouse assessed as increase in p21 accumulation in tumor at 12.5 mg/kg, po single dose by Western blot analysis; type: functional, organism-based; set-up: dose 12.5 mg/kg
[26] = tested on: Mus musculus; test: Toxicity in human SJSA1 cells xenografted in BALB/c SLc-nu/nu mouse assessed as body weight loss at 50 mg/kg, po compound administered from day 17 to 20 (qdx4) measured on day 25 (reference value: <0%); type: organism-based, SJSA-1; set-up: dose 50 mg/kg, route oral; conditions: in vivo
[27] = AUC in mouse plasma at 50 mg/kg, po; type: ADME, organism-based; set-up: dose 50 mg/kg, route oral
[28] = Plasma concentration in mouse at 50 mg/kg, po after 19 hrs; type: ADME, organism-based; set-up: dose 50 mg/kg, route oral
[29] = Plasma concentration in mouse at 100 mg/kg, po after 19 hrs; type: ADME, organism-based; set-up: dose 100 mg/kg, route oral
[30] = tested on: SJSA-1; test: Antitumor activity against human SJSA1 cells xenografted in BALB/c SLc-nu/nu mouse assessed as tumor growth inhibition at 100 mg/kg, po compound administered from day 17 to 20 (qdx4) measured on day 25 (reference value: 0%); type: functional; conditions: read-out: TGI
[31] = Plasma concentration in mouse at 100 mg/kg, po after 6 hrs; type: ADME, organism-based; set-up: dose 100 mg/kg, route oral
[32] = Cmax in mouse at 100 mg/kg, po; type: ADME, organism-based; set-up: dose 100 mg/kg, route oral; conditions: in vivo

CC(C)C1=C(C(=O)N2[C@H](C)CC[C@H]2C(=O)N2CCN(C)C3(CC3)C2)SC2=N[C@@](C)(c3ccc(Cl)cc3)[C@@H](c3ccc(Cl)cc3)N21
remaining at 0.5 h, 1 µM [1]: 41% | solubility [2]: 38 µg/mL (≈ 57 µM) | GI50 at 72 h [3]: 17200 nM | GI50 [4]: 1080 nM

CC(C)C1=C(C(=O)N2C[C@H](F)C[C@H]2C(=O)N2CC3(CC3)NC[C@@H]2C)SC2=N[C@@](C)(c3ccc(Cl)nc3)[C@@H](c3ccc(Cl)c(F)c3)N21
remaining at 0.5 h, 1 µM [1]: 79% | solubility [2]: 640 µg/mL (≈ 928 µM) | GI50 at 72 h [3]: > 50000 nM | GI50 [4]: 26 nM

CC[C@@H]1CNC2(CC2)CN1C(=O)[C@@H]1C[C@@H](F)CN1C(=O)C1=C(C(C)C)N2C(=N[C@@](C)(c3ccc(Cl)nc3)[C@H]2c2ccc(Cl)c(F)c2)S1
remaining at 0.5 h, 1 µM [1]: 84% | Cmax [5]: 6000 ng/mL | inhibition in vivo at 25 mg/kg [6]: 72.3% | Cmax [7]: 15900 ng/mL | AUC [8]: 259 µg·h/mL | concentration at 6 h [9]: 12400 ng/mL | inhibition in vivo at 12.5 mg/kg [10]: 29.7% | concentration at 6 h [11]: 3600 ng/mL | Activity [12]: Active | Activity [13]: 0.2% | Activity [14]: 0.2% | concentration at 3 h [15]: 6000 ng/mL | AUC [16]: 47.1 µg·h/mL | Activity [17]: 1.2% | concentration at 3 h [18]: 26100 ng/mL | Activity [19]: Active | Activity [20]: Active | inhibition in vivo at 50 mg/kg [21]: 93.7% | concentration at 24 h [22]: 20 ng/mL | concentration at 3 h [23]: 15900 ng/mL | concentration at 24 h [24]: 10 ng/mL | Activity [25]: Active | Activity [26]: 0.7% | AUC [27]: 147 µg·h/mL | concentration at 19 h [28]: 10 ng/mL | concentration at 19 h [29]: 160 ng/mL | inhibition in vivo at 100 mg/kg [30]: 96.6% | concentration at 6 h [31]: 22300 ng/mL | Cmax [32]: 26100 ng/mL | solubility [2]: 420 µg/mL (≈ 597 µM) | GI50 at 72 h [3]: > 50000 nM | GI50 [4]: 170 nM

CC(C)C1=C(C(=O)N2[C@H](C)CC[C@H]2C(=O)N2CC3(CC3)NC[C@@H]2C)SC2=N[C@@](C)(c3ccc(Cl)nc3)[C@@H](c3ccc(Cl)c(F)c3)N21
remaining at 0.5 h, 1 µM [1]: 100% | solubility [2]: 720 µg/mL (≈ 1050 µM) | GI50 at 72 h [3]: > 50000 nM | GI50 [4]: 240 nM

CC(C)C1=C(C(=O)N2[C@H](C)CC[C@H]2C(=O)N2CCNC3(CC3)C2)SC2=N[C@@](C)(c3ccc(Cl)cc3)[C@@H](c3ccc(Cl)cc3)N21
remaining at 0.5 h, 1 µM [1]: 87% | solubility [2]: 56 µg/mL (≈ 85.8 µM) | GI50 at 72 h [3]: 16200 nM | GI50 [4]: 650 nM

CC(C)C1=C(C(=O)N2[C@H](C)CC[C@H]2C(=O)N2CCNC3(CC3)C2)SC2=N[C@@](C)(c3ccc(Cl)nc3)[C@@H](c3ccc(Cl)c(F)c3)N21
remaining at 0.5 h, 1 µM [1]: 80% | solubility [2]: 330 µg/mL (≈ 491 µM) | GI50 at 72 h [3]: > 50000 nM | GI50 [4]: 660 nM

CC(C)C1=C(C(=O)N2[C@H](C)CC[C@H]2C(=O)N2CCN(C)[C@H](C)C2)SC2=N[C@@](C)(c3ccc(Cl)cc3)[C@@H](c3ccc(Cl)cc3)N21
remaining at 0.5 h, 1 µM [1]: 74% | GI50 [4]: 850 nM

CC(C)C1=C(C(=O)N2[C@H](C)CC[C@H]2C(=O)N2CCNC3(CC3)C2)SC2=N[C@@](C)(c3ccc(Cl)cc3)[C@@H](c3ccc(Cl)c(F)c3)N21
remaining at 0.5 h, 1 µM [1]: 85% | solubility [2]: 51 µg/mL (≈ 76 µM) | GI50 at 72 h [3]: 16700 nM | GI50 [4]: 350 nM
